Results on three compounds are retold here after the NIST ThermoML archive (doi:10.1016/j.fluid.2005.11.014).

Values joined by “and” are separate entries in the source; they are usually repeats but may differ in a detail not shown here. Equal entries are not always repeated. ± gives the expanded uncertainty stated by the source.

For the data set the following is noted: 313.15 K; Liquid; Closed cell (Static) method.
On to `c1ccccc1` [benzene], for which the vapor or sublimation pressure (commonly the pressure of vapour in equilibrium with the condensed phase) is 24.39 ± 0.097 kPa and 24.37 ± 0.097 kPa.

Regarding `CC(C)OC(C)C` [diisopropyl ether], the “vapor or sublimation pressure” value is 37.1 ± 0.15 kPa and 37.11 ± 0.15 kPa and 37.12 ± 0.15 kPa.

For the compound `CCCO` [propan-1-ol], the “vapor or sublimation pressure” value was 7.003 ± 0.038 kPa and 7 ± 0.038 kPa.
